Patent US20080269267A1, “KINASE INHIBITORS USEFUL FOR THE TREATMENT OF MYLEOPROLIFIC DISEASES AND OTHER PROLIFERATIVE DISEASES” (Deciphera Pharmaceuticals, LLC, priority 2007, published 2008)
Counter-ions that a name gives are not always drawn.

Tests used:
[1] = molecular target: T1, C-Met kinase (SEQ ID NO:10) (Homo sapiens, UniProt P08581); assay: C-Met kinase assay (pyruvate kinase/lactate dehydrogenase coupled); settings: 0.5 h preincubation at 22° C., ATP 100 μM; read-out: c-Met Enzyme Assay, biochemical IC50
T1 construct: purchased Invitrogen PV3143
Protocol: C-Met Kinase (SEQ ID NO:10) Assay
Activity of C-Met kinase (SEQ ID NO:10) was determined by following the production of ADP from the kinase reaction through coupling with the pyruvate kinase/lactate dehydrogenase system (e.g., Schindler, et al. Science (2000) 289, 1938-1942). In this assay, the oxidation of NADH (thus the decrease at A340 nm) was continuously monitored spectrophometrically. The reaction mixture (100 μl) contained C-Met (c-Met residues; 956-1390, from Invitrogen, catalogue #PV3143, 6 nM), polyE4Y (1 mg/ml), MgCl2 (10 mM), pyruvate kinase (4 units), lactate dehydrogenase (0.7 units), phosphoenol pyruvate (1 mM), and NADH (0.28 mM) in 90 mM Tris buffer containing 0.25 mM DTT, 0.2% octyl-glucoside and 1% DMSO, pH 7.5. Test compounds were incubated with C-Met (SEQ ID NO:10) and other reaction reagents at 22° C. for 0.5 h before ATP (100 μM) was added to start the reaction. The absorption at 340 n=was monitored continuously for 2 hours at 30° C. on Polarstar Optima plate reader (BMG). The reaction rate was calculated using the 1.0 to 2.0 h time frame. Percent inhibition was obtained by comparison of reaction rate with that of a control (i.e. with no test compound). IC50 values were calculated from a series of percent inhibition values determined at a range of inhibitor concentrations using software routines as implemented in the GraphPad Prism software package.

[2] = molecular target: T2, BaF3 cells transfected with T315I p210 BCR-Abl (Homo sapiens, UniProt P00519, T315I, cells depend on it); assay: Ba/F3 p210 T315I whole cell proliferation assay (Cell Titer Blue, 72 hours); format: cell-based; settings: 72 hours incubation; read-out: Ba/F3 p210 T315I whole cell proliferation assay, antiproliferation IC50
T2 construct: fused on or other part: P11274 (Breakpoint cluster region protein)
Protocol: BaF3 cells (parental or transfected with the following: wild type p210 BCR-Abl and T315I p210 BCR-Abl was obtained from Professor Richard Van Etten (New England Medical Center, Boston, Mass.). Briefly, cells were grown in RPMI 1640 supplemented with 10% characterized fetal bovine serum (HyClone, Logan, Utah) at 37 degrees Celsius, 5% CO2, 95% humidity. Cells were allowed to expand until reaching 80% saturation at which point they were subcultured or harvested for assay use.
A serial dilution of test compound was dispensed into a 96 well black clear bottom plate (Corning, Corning, N.Y.). For each cell line, three thousand cells were added per well in complete growth medium. Plates were incubated for 72 hours at 37 degrees Celsius, 5% CO2, 95% humidity. At the end of the incubation period Cell Titer Blue (Promega, Madison, Wis.) was added to each well and an additional 4.5 hour incubation at 37 degrees Celsius, 5% CO2, 95% humidity was performed. Plates were then read on a BMG Fluostar Optima (BMG, Durham, N.C.) using an excitation of 544 nm and an emission of 612 nm. Data was analyzed using Prism software (Graphpad, San Diego, Calif.) to calculate IC50's.

[3] = molecular target: T3, T315I Abl kinase (SEQ ID NO:2) (Homo sapiens, UniProt P00519, T315I); assay: T315I Abl kinase assay (pyruvate kinase/lactate dehydrogenase coupled); settings: 1 h preincubation at 30° C., ATP 500 μM; read-out: Abl T315l Enzyme Assay, biochemical IC50
T3 construct: purchased deCode Genetics
T3 sequence (P00519 with tags, fused parts or gaps T315I): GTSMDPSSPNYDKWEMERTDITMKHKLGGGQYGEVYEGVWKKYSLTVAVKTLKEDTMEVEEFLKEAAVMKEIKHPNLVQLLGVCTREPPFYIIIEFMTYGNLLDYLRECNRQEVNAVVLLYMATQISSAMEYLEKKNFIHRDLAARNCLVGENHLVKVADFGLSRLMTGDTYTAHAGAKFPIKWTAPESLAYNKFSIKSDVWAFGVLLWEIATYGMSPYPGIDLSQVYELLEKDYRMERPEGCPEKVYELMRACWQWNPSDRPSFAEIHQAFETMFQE
Protocol: Abl Kinase (SEQ ID NO:2) Assay
Activity of T315I Abl kinase (SEQ ID NO:2) was determined by following the production of ADP from the kinase reaction through coupling with the pyruvate kinase/lactate dehydrogenase system (e.g., Schindler, et al. Science (2000) 289, 1938-1942). In this assay, the oxidation of NADH (thus the decrease at A340nm) was continuously monitored spectrophometrically. The reaction mixture (100 μl) contained Abl kinase (4.4 nM. […] Abl from deCode Genetics), peptide substrate (EAIYAAPFAKKK, 0.2 mM), MgCl2 (10 mM), pyruvate kinase (4 units), lactate dehydrogenase (0.7 units), phosphoenol pyruvate (1 mM), and NADH (0.28 mM) in 90 mM Tris buffer containing 0.2% octyl-glucoside and 1% DMSO, pH 7.5. Test compounds were incubated with T315I Abl (SEQ ID NO:2) and other reaction reagents at 30° C. for 1 h before ATP (500 μM) was added to start the reaction. The absorption at 340 nm was monitored continuously for 2 hours at 30° C. on Polarstar Optima plate reader (BMG). The reaction rate was calculated using the 1.0 to 2.0 h time frame. Percent inhibition was obtained by comparison of reaction rate with that of a control (i.e. with no test compound). IC50 values were calculated from a series of percent inhibition values determined at a range of inhibitor concentrations using software routines as implemented in the GraphPad Prism software package.

T1 sequence (P08581 with tags, fused parts or gaps): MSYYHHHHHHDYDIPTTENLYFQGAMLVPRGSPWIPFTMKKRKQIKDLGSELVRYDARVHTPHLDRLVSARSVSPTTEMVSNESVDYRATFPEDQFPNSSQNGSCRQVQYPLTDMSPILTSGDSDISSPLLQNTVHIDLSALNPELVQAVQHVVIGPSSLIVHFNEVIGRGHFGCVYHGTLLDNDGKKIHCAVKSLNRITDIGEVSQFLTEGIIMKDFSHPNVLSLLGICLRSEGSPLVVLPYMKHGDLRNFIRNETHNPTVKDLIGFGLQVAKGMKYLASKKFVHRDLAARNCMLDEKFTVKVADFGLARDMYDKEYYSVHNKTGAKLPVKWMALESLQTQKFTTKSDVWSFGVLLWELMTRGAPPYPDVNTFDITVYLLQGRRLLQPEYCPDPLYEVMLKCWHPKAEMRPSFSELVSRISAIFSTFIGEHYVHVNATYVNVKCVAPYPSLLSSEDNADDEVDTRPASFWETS

IC50 [1] [nM]	GI50 [2] [nM]	IC50 [3] [nM]	Molecule
< 10000	< 100	< 100000	Cc1ncc(NC(=O)Nc2ccc(Oc3ccnc(-c4cnn(C)c4)c3)cc2F)c(-c2ccccc2)n1 [Example 14, 1-(2-fluoro-4-(2-(1-methyl-1H-pyrazol-4-yl)pyridin-4-yloxy)phenyl)-3-(2-methyl-4-phenylpyrimidin-5-yl)urea]
< 100	< 100	< 100	CC(C)c1cc(NC(=O)Nc2ccc(Oc3ccnc(-c4cnn(C)c4)c3)cc2F)n(-c2cccc(F)c2)n1 [Example 24, 1-(2-fluoro-4-(2-(1-methyl-1H-pyrazol-4-yl)pyridin-4-yloxy)phenyl)-3-(1-(3-fluorophenyl)-3-isopropyl-1H-pyrazol-5-yl)urea]
< 100	< 100	< 100	CC(C)c1cc(NC(=O)Nc2ccc(Oc3ccnc(-c4cnn(C)c4)c3)c(F)c2)n(-c2cccc(C#N)c2)n1 [Example 16, 1-(1-(3-cyanophenyl)-3-isopropyl-1H-pyrazol-5-yl)-3-(3-fluoro-4-(2-(1-methyl-1H-pyrazol-4-yl)pyridin-4-yloxy)phenyl)urea]
< 100	< 100	< 100	CC(C)c1cc(NC(=O)Nc2ccc(Oc3ccnc(-c4cnn(C)c4)c3)c(F)c2F)n(-c2cccc(C#N)c2)n1 [Example 13, 1-(1-(3-cyanophenyl)-3-isopropyl-1H-pyrazol-5-yl)-3-(2,3-difluoro-4-(2-(1-methyl-1H-pyrazol-4-yl)pyridin-4-yloxy)phenyl)urea]
< 1000	< 100	< 100	CCc1cc(NC(=O)Nc2ccc(Oc3ccnc(-c4cnn(C(C)C)c4)c3)cc2F)n(-c2cccc(C#N)c2)n1 [Example 17, 1-(1-(3-cyanophenyl)-3-ethyl-1H-pyrazol-5-yl)-3-(2-fluoro-4-(2-(1-isopropyl-1H-pyrazol-4-yl)pyridin-4-yloxy)phenyl)urea]
< 1000	< 10000	< 100	Cn1cc(-c2cc(Oc3ccc(NC(=O)Nc4cc(-c5ccccc5F)nn4C)c(F)c3F)ccn2)cn1 [Example 25, 1-(2,3-difluoro-4-(2-(1-methyl-1H-pyrazol-4-yl)pyridin-4-yloxy)phenyl)-3-(3-(2-fluorophenyl)-1-methyl-1H-pyrazol-5-yl)urea]
< 1000	< 100	< 100	CC(C)n1cc(NC(=O)Nc2ccc(Oc3ccnc(-c4cnn(C)c4)c3)cc2F)c(-c2ccccc2)n1 [Example 21, 1-(2-fluoro-4-(2-(1-methyl-1H-pyrazol-4-yl)pyridin-4-yloxy)phenyl)-3-(1-isopropyl-3-phenyl-1H-pyrazol-4-yl)urea]

The next lines start with the molecule.

Molecule	IC50 [1] [nM]	GI50 [2] [nM]	IC50 [3] [nM]
Cn1cc(-c2cc(Oc3ccc(NC(=O)Nc4cc(C(C)(C)C)nn4-c4ccc(C#N)cc4)c(F)c3)ccn2)cn1 [Example 6, 1-(3-tert-butyl-1-(4-cyanophenyl)-1H-pyrazol-5-yl)-3-(2-fluoro-4-(2-(1-methyl-1H-pyrazol-4-yl)pyridin-4-yloxy)phenyl)urea]	< 100	< 100	< 100
1-(2-tert-butyl-4-(pyridin-3-yl)pyrimidin-5-yl)-3-(2-fluoro-5-(8-methyl-2-(methylamino)-7-oxo-7,8-dihydropyrido[2,3-d]pyrimidin-6-yl)phenyl)urea [Example 10]	< 10000	< 100	< 100000
Cn1cc(-c2cc(Oc3ccc(NC(=O)Nc4cc(C(C)(C)C)nn4-c4cccc(CO)c4)c(F)c3)ccn2)cn1 [Example 7, 1-(3-tert-butyl-1-(3-(hydroxymethyl)phenyl)-1H-pyrazol-5-yl)-3-(2-fluoro-4-(2-(1-methyl-1H-pyrazol-4-yl)pyridin-4-yloxy)phenyl)urea p-toluenesulfonic acid]	< 100	< 100	< 100
CC(C)(C)c1cc(NC(=O)Nc2ccc(Oc3ccnc(-c4cn[nH]c4)c3)cc2F)n(-c2cccc(C#N)c2)n1 [Example 3, 1-(4-(2-(1H-pyrazol-4-yl)pyridin-4-yloxy)-2-fluorophenyl)-3-(3-tert-butyl-1-(3-cyanophenyl-1H-pyrazol-5-yl)urea hydrochloride]	< 100	< 100	< 100
Cn1cc(-c2cc(Oc3ccc(NC(=O)Nc4cc(C(C)(C)C)nn4-c4cccc(C#N)c4)c(F)c3)ccn2)cn1 [Example 4, 1-(3-tert-butyl-1-(3-cyanophenyl)-1H-pyrazol-5-yl)-3-(2-fluoro-4-(2-(1-methyl-1H-pyrazol-4-yl)pyridin-4-yloxy)phenyl)urea hydrochloride]	< 100	< 100	< 100
CCc1cc(NC(=O)Nc2ccc(Oc3ccnc(-c4cnn(C)c4)c3)cc2F)n(-c2cccc(C#N)c2)n1 [Example 9, 1-(1-(3-cyanophenyl)-3-ethyl-1H-pyrazol-5-yl)-3-(2-fluoro-4-(2-(1-methyl-1H-pyrazol-4-yl)pyridin-4-yloxy)phenyl)urea]	< 1000	< 100	< 100
Cn1cc(-c2cc(Oc3ccc(NC(=O)Nc4cc(C(C)(C)C)nn4-c4ccc(CO)cc4)c(F)c3)ccn2)cn1 [Example 8, 1-(3-tert-butyl-1-(4-(hydroxymethyl)phenyl)-1H-pyrazol-5-yl)-3-(2-fluoro-4-(2-(1-methyl-1H-pyrazol-4-yl)pyridin-4-yloxy)phenyl)urea]	< 100	< 100	< 100
Cc1c(Oc2ccnc(-c3cnn(C)c3)c2)ccc(NC(=O)Nc2cc(C(C)C)nn2-c2cccc(C#N)c2)c1F [Example 12, 1-(1-(3-cyanophenyl)-3-isopropyl-1H-pyrazol-5-yl)-3-(2-fluoro-3-methyl-4-(2-(1-methyl-1H-pyrazol-4-yl)pyridin-4-yloxy)phenyl)urea]	< 100	< 100	< 100
Cc1ccc(-n2nc(C(C)C)cc2NC(=O)Nc2ccc(Oc3ccnc(-c4cnn(C)c4)c3)cc2F)cc1C#N [Example 11, 1-(1-(3-cyano-4-methylphenyl)-3-isopropyl-1H-pyrazol-5-yl)-3-(2-fluoro-4-(2-(1-methyl-1H-pyrazol-4-yl)pyridin-4-yloxy)phenyl)urea]	< 100	< 100	< 100
